Laboratory results reported in article PMC6884555, “Simultaneous measurement of p53:Mdm2 and p53:Mdm4 protein-protein interactions in whole cells using fluorescence labelled foci” (Scientific Reports, 2019).
“Also recorded” adds a separate entry of the source. Read-outs that look alike come from different tables or passages of the source.

Tests used:
CHO-K1 cells [1] = assay: LDH release assay (CytoTox); format: cell-based, Chinese hamster; details: Cricetulus griseus
ASH-p53:AG-Mdm2 = target: T1, ASH-p53:AG-Mdm2 (Homo sapiens, UniProt Q00987); assay: Reversibility of FLUOPPI foci, transiently transfected ASH-p53:AG-Mdm2 CHO-K1 cells; format: cell-based
T1 construct: all eight possible combinations of p53 (1–70) and Mdm2 (1–119) were fused
Method: All 8 possible interactions pairs for the Mdm2:p53 PPI were then co-expressed in CHO-K1 cells and then analysed for foci formation 24 hours post-transfection (Fig. 1B). To eliminate the possibility of non-specific interactions between the expression constructs giving rise to foci formation, negative control experiments were performed between the AG fluorescent tagged constructs and the non-fluorescent oligomerizing tag (ASH) by itself (Fig. 1C).
24 hours prior to transfection CHO-K1 cells were seeded at a cell density of 800,000 cells respectively per well of a 6 well plate (ThermoFisher Scientific). […] After a 24 hour incubation, medium was removed and cells were washed with PBS saline. Transfected CHO-K1 cells were trypsinised and re-suspended in Nutrient Mixture F-12 Ham (Ham's F-12) media (Sigma-Aldrich) supplemented with 10% FCS. Cells were then spun down at 1000 rpm for 5 minutes at room temperature. Supernatant was then discarded and cells re-suspended to a density of 200,000 cells per ml in Ham's F-12 media supplemented with 10% FCS. 100 μl of the resulting cell suspension was added to the wells of a black clear bottom 96-well plate. After a 24 hours incubation, the cell medium was replaced with fresh Ham's F-12 medium containing the indicated concentration of small molecule or stapled peptide and the stated FCS concentration. Final concentration of DMSO was 1% (v/v).

CHO-K1 cells [2] = tested on: CHO-K1 cells
CHO-K1 cells [3] = assay: cells; details: Cricetulus griseus, read-out: Viability (IC50, µM)
Mdm4:p53 [4] = target: T2, Mdm4:p53 (Homo sapiens, UniProt O15151); assay: Bimodal FLUOPPI Mdm4:p53 PPI assay (pre-mixed stably transfected CHO-K1 cells, high-content imaging); format: cell-based; details: bimodal system; both treatment time points
T2 construct: the p53 (1–70) and Mdm4 (1–112) PPI was then cloned and fused to the FP and ASH tags
T2 sequence (O15151 1-112): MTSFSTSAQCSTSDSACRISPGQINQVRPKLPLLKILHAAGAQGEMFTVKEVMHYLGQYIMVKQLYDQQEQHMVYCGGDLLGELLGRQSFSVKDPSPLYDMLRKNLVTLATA
Method: Separate CHO-K1 lines stably expressing either Ash-p53:AG-Mdm2 or Ash-p53:MR-Mdm4 Fluoppi PPI pairs were established and maintained independently. To enable bimodal measurement both cell lines were pre-mixed in equal proportions and then used to seed 96 well plates for compound analysis. […] Plates were incubated overnight and cells were treated with PPI modulating drugs. […] Cells were also processed using a nuclear morphology filter. […] A minimum number of 500 foci were used to determine this value. Dose curves for each compound were then derived and used to calculate a corresponding IC50 value.
Two stable cell lines, 1A7-1 and 1B7-11 were mixed equally and seeded into poly-D-lysine black-wall 96-well plates (Corning) at a density of 20,000 cells/well and incubated for 24 hours at 37 °C in a 5% CO2 atmosphere. […] Green (AG), red (MR) and blue (Hoechst33342) or far-red (Draq5) fluorescence images were used to monitor p53-MDM2, p53-MDM4 and nuclei, respectively. […] To remove dead cells from analysis, only cells with a “nuclei roundness” score of more than 0.75 were counted. FLUOPPI values were calculated by dividing the total green or red fluorescence intensity of puncta by the number of AG-positive nuclei or MR-positive nuclei, respectively. […]

Mdm4:p53 [5] = target: T3, Mdm4:p53 (Homo sapiens, UniProt O15151); assay: NanoBIT Mdm4:p53 PPI assay (transiently transfected CHO-K1 cells); format: cell-based; details: NanoBIT Mdm4:p53 (IC50, µM), small molecules, 10% (v/v) FCS
T3 sequence (O15151 1-490): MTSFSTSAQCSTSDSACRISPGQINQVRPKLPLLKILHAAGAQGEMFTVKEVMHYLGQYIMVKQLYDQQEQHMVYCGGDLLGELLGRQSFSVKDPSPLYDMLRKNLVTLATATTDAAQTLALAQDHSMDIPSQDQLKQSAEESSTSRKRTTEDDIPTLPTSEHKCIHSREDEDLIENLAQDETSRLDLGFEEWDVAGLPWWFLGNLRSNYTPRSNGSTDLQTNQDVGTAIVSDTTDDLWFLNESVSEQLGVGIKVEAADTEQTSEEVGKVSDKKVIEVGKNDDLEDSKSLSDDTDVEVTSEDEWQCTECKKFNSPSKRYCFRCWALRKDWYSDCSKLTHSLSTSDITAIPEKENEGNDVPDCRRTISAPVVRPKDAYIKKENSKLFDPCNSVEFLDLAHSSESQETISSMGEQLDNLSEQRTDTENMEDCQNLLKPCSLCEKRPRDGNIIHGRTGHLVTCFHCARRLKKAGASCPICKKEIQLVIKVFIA
Method: When LgBiT and SmBiT are optimally fused to two interacting proteins, in this case full-length Mdm2 and full-length p53, they will be brought sufficiently close to each other that they will reform the active luciferase and generate a luminescence signal.
For transient transfection experiments, 24 hours prior to transfection CHO cells were seeded at a cell density of 300,000 or 1200,000 cells respectively per well of a 6 well plate (ThermoFisher Scientific). […] After a 24 hour incubation, medium was removed and cells were washed with PBS saline. Transfected CHO-1 cells were trypsinised and re-suspended in Opti-MEM media with 0% FCS. […] 25 μl of a 20-fold dilution of Nano-Glo live cell substrate (Promega) in Nano-Glo dilution buffer (PROMEGA) was added to each well and the plate shaken for 1 min at 22 °C and luminescence assessed after additional 50 minutes as described previously[43]. All luminescence assay were carried out in triplicate and luciferase activity for each well was measured by Envision Multilabel plate reader (PerkinElmer). […]
Curve-fitting was carried out using Prism 4.0 (GraphPad). a was always constrained to the experimental value determined using the 1% DMSO (v/v) experimental control. After curve fitting the value determined for d was then verified to be in close agreement with the plateau of the titration.

p53:Mdm2 interaction = details: read-out: IC50, fluorescence polarization assay; cited from earlier work
[6] = CHO-K1, 1 h, read-out: LDH Release (EC50, µM)

T1 sequence (Q00987 1-119, looked up): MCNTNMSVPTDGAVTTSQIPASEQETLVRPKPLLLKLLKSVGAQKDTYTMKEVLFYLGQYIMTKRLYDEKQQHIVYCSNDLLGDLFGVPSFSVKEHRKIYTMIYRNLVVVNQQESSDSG

COc1ccc(C2=N[C@@H](c3ccc(Cl)cc3)[C@@H](c3ccc(Cl)cc3)N2C(=O)N2CCNC(=O)C2)c(OC(C)C)c1 [Nutlin 3A]
EC50 (CHO-K1 cells [1]; [6]): 35.7 ± 6.2 µM
disruption of Mdm2:p53 fluorescent foci (in words) (ASH-p53:AG-Mdm2): disrupted; also recorded: disruption of the fluorescent foci
effect on cellular viability (in words) (CHO-K1 cells [2]): significant decreases in cellular viability
concentration with significant effects on cellular viability (arbitrarily defined as >25%) (CHO-K1 cells [2]; Chinese hamster): > 25 µM
IC50 (CHO-K1 cells [3]; CHO-K1, 1 h): 34 ± 7 µM
IC50 (CHO-K1 cells [3]; CHO-K1, 24 h): 28.5 µM

CC(C)(C)C[C@@H]1N[C@@H](C(=O)N[C@H]2CC[C@H](O)CC2)[C@H](c2cccc(Cl)c2F)[C@]12C(=O)Nc1cc(Cl)ccc12 [MI-773]
inhibition of the p53:Mdm4 FLUOPPI PPI (in words) (Mdm4:p53 [4]): negligible effect
IC50 (Mdm4:p53 [5]; 1 hour treatment): 10.2 ± 1.6 µM
IC50 (Mdm4:p53 [5]; 24 hour treatment): 2.7 µM
EC50 (CHO-K1 cells [1]; [6]): 30 ± 6.2 µM
EC50 (CHO-K1 cells [1]; CHO-K1, 4 h, read-out: Normalized LDH release, value printed beside curve): 30.6 ± 6.2 µM
IC50 (p53:Mdm2 interaction): 0.00088 µM
